Data from patent US7517517B2 (Janssen Pharmaceutica N.V., priority 2002, dated 2009).
Marks after values point to notes of the source that are not given here.

Legend:
rat mGlu4 receptor = target: T1, rat mGlu4 receptor (Rattus norvegicus, UniProt P31423); assay: [3H]Compound A binding to membranes from CHO-dhfr− cells expressing the rat mGlu4 receptor; settings: 20 nM [3H]Compound A, 40 μg membranes
T1 construct: host or cells: CHO-dhfr- cells
Experimental: (§1) Confluent cells were washed in ice-cold phosphate-buffered saline and stored at −20° C. until membrane preparation. After thawing, cells were suspended in 50 mM Tris-HCl, pH 7.4 and collected through centrifugation for 10 min at 23,500 g at 4° C. The cells were lysed in 10 mM hypotonic Tris-HCl, pH 7.4. After recentrifugation for 20 min at 30,000 g at 4° C., the pellet was homogenized with an Ultra Turrax homogenizer in 50 mM Tris-HCl, pH 7.4. Protein concentrations were measured by the Bio-Rad protein assay using bovine serum albumin as standard.
(§2) After thawing, the membranes were homogenized using an Ultra Turrax homogenizer and suspended in ice-cold binding buffer containing 50 mM Tris-HCl (pH 7.4), 1.2 mM MgCl2, 2 mM CaCl2. For [^3H]Compound A binding, 20 to 160 μg membrane protein and a final concentration of 20 nM [^3H]Compound A was used. As indicated in the results section, different blancs were used to define non-specific binding. Incubation time and temperature as well as filtration were as described for rat mGlu1a receptor CHO-dhfr^− membranes. Expression of rat mGlu2, -3, -5 and mGlu6 receptors was confirmed by specific binding of [^3H]LY341495 (mGlu2, -3 and -6) or [^3H]MPEP (mGlu5). For [^3H]LY341495 binding, 1 nM (mGlu2 and mGlu3) or 10 nM (mGlu6) [^3H]LY341495 was used. […] Assay mixtures were incubated for 30 min (mGlu2 and mGlu3) or 60 min (mGlu6) at 4° C. […]

rat mGlu3 receptor = target: T2, rat mGlu3 receptor (Rattus norvegicus, UniProt P31422); assay: [3H]Compound A binding to membranes from CHO-dhfr− cells expressing the rat mGlu3 receptor; settings: 20 nM [3H]Compound A, 40 μg membranes
T2 construct: host or cells: CHO-dhfr- cells
Experimental: as §1, §2

rat mGlu1a receptor = target: T3, rat mGlu1a receptor (Rattus norvegicus, UniProt P23385); assay: [3H]Compound A binding to rat mGlu1a receptor CHO-dhfr− membranes (saturation, kinetics, inhibition); settings: for observed association rate constant (kob): 2.5 nM radioligand
T3 construct: host or cells: CHO-dhfr- cells

[1] = [3H]Compound A saturation binding in presence of BAY 36-7620 (100 nM), mean ± SD, 3 experiments
[2] = [3H]Compound A saturation binding in presence of CPCCOEt (30 μM), mean ± SD, 3 experiments
[3] = [3H]Compound A saturation binding in presence of NPS 2390 (10 nM), mean ± SD, 3 experiments
[4] = [3H]Compound A saturation binding, control (absence of antagonist), mean ± SD, 3 experiments

T3 sequence (P23385 19-1199): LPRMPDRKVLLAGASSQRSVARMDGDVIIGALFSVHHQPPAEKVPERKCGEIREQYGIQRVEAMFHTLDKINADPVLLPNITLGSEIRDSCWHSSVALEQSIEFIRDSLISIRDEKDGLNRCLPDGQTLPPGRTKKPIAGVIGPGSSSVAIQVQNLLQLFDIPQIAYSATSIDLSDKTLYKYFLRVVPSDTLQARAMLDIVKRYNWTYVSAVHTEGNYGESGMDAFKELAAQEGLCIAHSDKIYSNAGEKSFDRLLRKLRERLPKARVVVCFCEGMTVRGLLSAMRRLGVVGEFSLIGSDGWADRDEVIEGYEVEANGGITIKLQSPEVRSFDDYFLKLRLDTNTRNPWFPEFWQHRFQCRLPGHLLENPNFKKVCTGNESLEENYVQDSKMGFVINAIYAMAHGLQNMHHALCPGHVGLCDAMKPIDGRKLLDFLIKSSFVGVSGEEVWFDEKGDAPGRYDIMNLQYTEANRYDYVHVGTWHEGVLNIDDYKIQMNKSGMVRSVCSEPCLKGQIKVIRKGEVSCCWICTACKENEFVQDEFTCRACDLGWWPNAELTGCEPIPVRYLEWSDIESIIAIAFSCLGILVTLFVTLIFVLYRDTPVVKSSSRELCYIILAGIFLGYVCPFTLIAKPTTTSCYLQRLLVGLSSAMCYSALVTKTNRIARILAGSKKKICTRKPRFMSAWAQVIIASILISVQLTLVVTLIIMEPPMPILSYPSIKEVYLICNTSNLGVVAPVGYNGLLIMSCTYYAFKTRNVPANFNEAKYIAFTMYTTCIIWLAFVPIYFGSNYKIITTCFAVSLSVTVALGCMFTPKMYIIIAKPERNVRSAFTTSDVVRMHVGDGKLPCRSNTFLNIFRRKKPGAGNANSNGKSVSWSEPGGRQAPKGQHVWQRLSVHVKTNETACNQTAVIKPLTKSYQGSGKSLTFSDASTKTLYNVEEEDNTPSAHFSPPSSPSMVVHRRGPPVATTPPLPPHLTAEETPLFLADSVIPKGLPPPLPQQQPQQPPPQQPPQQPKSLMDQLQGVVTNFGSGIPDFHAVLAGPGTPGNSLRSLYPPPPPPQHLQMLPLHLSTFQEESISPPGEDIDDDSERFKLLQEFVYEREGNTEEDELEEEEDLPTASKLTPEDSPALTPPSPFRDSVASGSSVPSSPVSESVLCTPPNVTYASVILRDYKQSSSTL
T2 sequence (P31422 23-879): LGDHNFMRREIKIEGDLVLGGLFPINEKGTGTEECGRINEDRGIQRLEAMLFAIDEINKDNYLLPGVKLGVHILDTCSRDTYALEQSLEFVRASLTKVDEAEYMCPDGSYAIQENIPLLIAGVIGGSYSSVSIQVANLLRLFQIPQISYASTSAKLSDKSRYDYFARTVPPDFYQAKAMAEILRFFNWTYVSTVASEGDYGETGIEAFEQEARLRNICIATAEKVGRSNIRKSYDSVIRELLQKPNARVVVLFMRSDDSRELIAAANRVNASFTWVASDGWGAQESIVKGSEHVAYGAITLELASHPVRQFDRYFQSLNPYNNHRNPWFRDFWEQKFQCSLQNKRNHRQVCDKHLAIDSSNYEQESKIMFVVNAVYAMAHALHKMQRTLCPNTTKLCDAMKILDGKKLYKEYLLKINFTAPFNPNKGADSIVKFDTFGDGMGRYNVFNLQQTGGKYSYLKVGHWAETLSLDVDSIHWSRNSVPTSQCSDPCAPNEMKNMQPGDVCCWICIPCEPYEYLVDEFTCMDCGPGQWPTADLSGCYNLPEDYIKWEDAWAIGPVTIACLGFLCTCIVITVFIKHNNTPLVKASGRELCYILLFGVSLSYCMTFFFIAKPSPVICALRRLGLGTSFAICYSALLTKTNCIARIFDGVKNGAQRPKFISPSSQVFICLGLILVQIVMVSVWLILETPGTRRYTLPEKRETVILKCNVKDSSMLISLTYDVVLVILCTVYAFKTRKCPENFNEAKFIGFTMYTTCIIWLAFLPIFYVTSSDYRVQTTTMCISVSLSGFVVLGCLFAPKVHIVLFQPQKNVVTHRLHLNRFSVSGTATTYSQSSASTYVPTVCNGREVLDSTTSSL
T1 sequence (P31423 33-912): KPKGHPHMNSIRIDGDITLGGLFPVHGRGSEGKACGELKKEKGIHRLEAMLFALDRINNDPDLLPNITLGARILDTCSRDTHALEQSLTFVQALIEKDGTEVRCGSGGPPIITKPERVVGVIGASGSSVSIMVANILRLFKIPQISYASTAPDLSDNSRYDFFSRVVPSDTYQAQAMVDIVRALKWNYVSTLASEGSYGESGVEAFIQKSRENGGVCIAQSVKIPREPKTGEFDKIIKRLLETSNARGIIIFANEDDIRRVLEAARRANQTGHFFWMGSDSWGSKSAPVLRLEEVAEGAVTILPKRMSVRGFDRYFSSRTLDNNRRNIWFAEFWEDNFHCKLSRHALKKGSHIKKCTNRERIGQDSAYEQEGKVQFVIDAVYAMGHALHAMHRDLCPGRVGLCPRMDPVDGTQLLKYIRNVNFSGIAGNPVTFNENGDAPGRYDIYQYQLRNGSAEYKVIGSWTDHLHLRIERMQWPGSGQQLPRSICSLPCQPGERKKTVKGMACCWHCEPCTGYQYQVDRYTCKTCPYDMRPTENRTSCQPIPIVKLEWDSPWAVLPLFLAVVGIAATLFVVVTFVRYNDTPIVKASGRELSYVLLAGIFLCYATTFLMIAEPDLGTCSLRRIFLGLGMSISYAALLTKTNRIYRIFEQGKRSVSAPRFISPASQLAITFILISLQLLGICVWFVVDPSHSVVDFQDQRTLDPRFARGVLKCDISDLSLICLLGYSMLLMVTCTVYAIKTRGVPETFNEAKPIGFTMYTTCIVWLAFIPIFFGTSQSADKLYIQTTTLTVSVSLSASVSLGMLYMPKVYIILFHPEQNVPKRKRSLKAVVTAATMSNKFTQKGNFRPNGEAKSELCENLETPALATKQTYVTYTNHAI

## [3H]c1ccc(CC(=O)c2ccc3nc4c(cc3c2)CCCO4)cc1 [[^3H]Compound A]
Rat mGlu4 receptor; Compound 135 as blanc
  SB (fmoles/mg protein), mGlu4: 82 fmoles/mg protein
Rat mGlu4 receptor; various blancs: 0.1 mM L-SOP
  SB (fmoles/mg protein), mGlu4: 57^b fmoles/mg protein
Rat mGlu3 receptor; Compound 135 as blanc
  SB (fmoles/mg protein), mGlu3: 0 fmoles/mg protein
Rat mGlu3 receptor; various blancs: 1 mM glutamate
  SB (fmoles/mg protein), mGlu3: 0^a fmoles/mg protein
other
  melting point: 195 °C
Rat mGlu1a receptor; 10 nM [3H]Compound A, 20 μg membranes, Compound 135 as blanc, mean ± SD of 3 experiments
  SB (fmoles/mg protein), mGlu1: 6057 fmoles/mg protein
Rat mGlu1a receptor; 20 μg protein per assay, non-specific binding with 1 μM compound 135
  specific binding as % of the total binding: ~92%
Rat mGlu1a receptor; 4° C.
  koff: 0.00208 s⁻¹
  specific binding after 2 min incubation as % of the quantity bound at equilibrium: about 70%
  time to complete displacement after addition of excess compound 135: approximately 45 min
  observed association rate constant (kob): 0.6285 min⁻¹
Rat mGlu1a receptor; 4° C., read-out: kon (kob−koff/radioligand concentration) (converted)
  kon: 1.68e+06 M⁻¹ s⁻¹
Rat mGlu1a receptor; 25° C.
  time to dissociation after addition of 1 μM compound 135: ≤ 2 min
  observed association rate constant (kob): 2.571 min⁻¹
Rat mGlu1a receptor; 37° C.
  observed association rate constant (kob): 1.523 min⁻¹
Rat mGlu1a receptor; [1]
  Bmax: 5872 ± 1018 fmoles/mg protein
  Kd: 5.21 ± 1.2 nM
Rat mGlu1a receptor; [2]
  Bmax: 7009 ± 1231 fmoles/mg protein
  Kd: 3.17 ± 0.9 nM
Rat mGlu1a receptor; [3]
  Bmax: 6887 ± 2804 fmoles/mg protein
  Kd: 2.9 ± 0.2 nM
Rat mGlu1a receptor; [4]
  Bmax: 7284 ± 970 fmoles/mg protein
  Kd: 0.73 ± 0.09 nM
Rat mGlu1a receptor; each incubation temperature (4, 25, 37° C.)
  incubation time to maximal binding: ≤ 5 min
Rat mGlu1a receptor; pH 6
  decrease of specific binding at pH 6: 22%
Rat mGlu1a receptor; rat mGlu1a receptor CHO-dhfr− membranes
  more binding sites labelled than [3H]quisqualate: ~40%
Rat mGlu1a receptor; saturation, 30 min incubation, n=3
  Kd: 0.9 ± 0.14 nM
